Experimental data from patent publication US10078090B2, “SAB as a biomarker for degenerative diseases and therapeutic sensitivity in cancers” (The Florida International University Board of Trustees, priority 2014, dated 2018).
“Also recorded” adds a separate entry of the source. Like-named read-outs stand apart in the source and are kept apart here.

Legend:
Sab expression [1] = test: In-cell western for SAB expression in SH-SY5Y cells treated with 6-OHDA; format: cell-based, human; details: increasing sub-chronic doses of 6-OHDA (0-100.00 nM, 24 hours)
Experimental: Cells or tissue samples are placed in a fluorescent compatible plate (for example, a 96-well plate) and the sample can be fixed to the plate. The sample is then permeabilized using detergent to disrupt the plasma membrane. Primary antibodies to detect SAB (Abnova, Inc.) are then incubated with the samples. Following a brief wash, the cells are incubated with a fluorescently labeled secondary antibody used to recognize the primary antibody. The samples are washed again. The plate is then scanned on a Li-Cor Bioscience Odyssey CLx near-infrared scanner to measure the fluorescent signal from the sample. A high fluorescent signaling indicates a higher level of SAB protein, while a low fluorescence signal indicates a lower level of SAB protein.
An in-cell western allows detection of protein levels in cells cultured in a 96-well black walled plate. For this technique, the cells are fixed with paraformaldehyde following seeding and growth to 80% confluency. […] Using the LiCor Odyssey CLx near infrared imager, the relative amounts of protein in each well are quantified. […]
An example of in-cell western technology for the detection of SAB is shown in (FIG. 3). […] In a model of cytotoxicity, SH-SY5Y cells treated with increasing sub-chronic doses of the neurotoxin, 6-hydroxydopamine (6-OHDA) were seeded in a 96-well plate and monitored for SAB expression.

SAB [2] = test: SAB levels in rats injected with 6-OHDA (ventral midbrain western blot, blood cells); format: in vivo, rat
Source text: Parkinson's disease-like state was induced in animals by localizing treatment to the ventral midbrains of rats using 6-hydroxydopamine. Blood was obtained from 6-hydroxydopamine treated rats and the control rats. Levels of SAB protein or RNA encoding SAB proteins in platelets and other blood cells were higher in 6-hydroxydopamine treated rats compared to control rats.
Further, disruption of SAB-mediated signaling using a small peptide to block kinase binding to SAB prevented 6-OHDA-induced motor deficiencies in rats (FIG. 8).

[3] = patients; cited from earlier work
SAB [4] = test: SAB levels in response to chronic cytotoxic processes; details: treatment with CCCP
HeLa cells [5] = test: Calculation of paclitaxel and cisplatin IC50s by TO-PRO-3 staining; format: cell-based, human
Experimental: LY294002 was solubilized in dimethylformamide (DMF). HeLa cells were exposed to the indicated doses of LY294002 over 24 h for acute studies. […] For sub-chronic exposure, cells were dosed with 2 μM LY294002 for seven days. The media was exchanged every 48 h to sustain the drug concentrations.
Briefly, 10,000 cells were plated in a black-walled optically clear bottom 96-well plate. […] The cells were fixed in 4% paraformaldehyde for 25 min at room temperature, and stained with TO-PRO-3 (1 μM) in PBST (150 mM NaCl, 8 mM Na2HPO4, 3 mM KCl, 2 mM KH2PO4, pH 7.4, 0.05% Tween 20). The cells were then washed five times in PBST while gently rocking for 5 min at room temperature. Samples were protected from light during incubations. Assays were visualized on the Li-Cor Odyssey CLx imager, and IC50s were calculated using Graphpad® Prism.
Transient transfections with pLOC plasmids for expression and pLKO.1 plasmids for silencing (Open Biosystems) were used to modulate Sab levels. HeLa cells were plated at a density of 2×10^5 cells per 35-mm dish the day before transfections. Plasmids were mixed with FugeneHD (Promega) at a ratio of 3:1 according to the manufacturer's protocol. Protein levels were monitored by western blot analysis.
(§1) Studies using LY294002 have employed high doses (often >10 μM). […] For acute treatments, cells were dosed with 0.1% DMF or increasing concentrations of LY294002 (2 μM, 10 μM, and 50 μM) for 24 h.

HeLa cells [6] = test: LY294002 toxicity / viability of HeLa cells; format: cell-based, human
Experimental: LY294002 was solubilized in dimethylformamide (DMF). HeLa cells were exposed to the indicated doses of LY294002 over 24 h for acute studies. […] […] The media was exchanged every 48 h to sustain the drug concentrations.
as §1

Sab expression [7] = test: Sab expression in LY294002-treated HeLa cells by quantitative western blot; format: cell-based, human
Experimental: LY294002 was solubilized in dimethylformamide (DMF). HeLa cells were exposed to the indicated doses of LY294002 over 24 h for acute studies. The 24-h IC10 for LY294002 in HeLa cells to be ˜2 μM. For sub-chronic exposure, cells were dosed with 2 μM LY294002 for seven days. The media was exchanged every 48 h to sustain the drug concentrations.
Following 72 h of transfection, cells were lysed and proteins were harvested. Protein concentration was determined using the by Pierce BCA Assay kit. Proteins were resolved by SDS-PAGE, and transferred onto PVDF membranes. Membranes were incubated with Li-Cor Biosciences Odyssey Blocking for at least 1 h at room temperature. The membranes were then incubated with primary antibodies specific for Sab, JNK, p44/42 MAPK (Erk1/2), p38, GAPDH, Actin, Calnexin, TOM20, or α-tubulin at 1:1000 dilutions in blocking buffer. Membranes were washed three times for 5 min in PBST. Membranes were incubated with secondary antibodies in blocking buffer at 1:20,000 for fluorescently conjugated secondary antibodies. Membranes were again washed three times for 5 min in PBST. […]
(§2) Western blot images were acquired using the LI-COR Odyssey CLx imager. Fluorescence signals were acquired for the bands of interest. […]
HeLa cell mitochondria were primed using a sub-chronic (2 μM dose) of LY294002 for seven days. The concentration of SAB was monitored using quantitative western blot analysis on protein lysates taken on days 0, 3, and 7 of LY294002 treatment.
To determine if LY294002 impacted the concentration of JNK signaling on mitochondria, the expression of Sab was measured in HeLa cells in both acute and sub-chronic administration of LY294002. […] As time increased, there was a noticeable increase (˜8-fold) in Sab expression in the LY294002 compared to DMF-treated and untreated cells (FIG. 17B and quantified in FIG. 18B). […] To determine if mitochondrial translocation of JNK occurred during the sub-chronic treatment, mitochondrial isolates were analyzed for the presence of JNK on days 3 and 4 (the days of maximal JNK activation). […]

JNK = JNK activation and mitochondrial JNK in LY294002-treated HeLa cells by western blot; format: cell-based, human
Experimental: Following 72 h of transfection, cells were lysed and proteins were harvested. Protein concentration was determined using the by Pierce BCA Assay kit. Proteins were resolved by SDS-PAGE, and transferred onto PVDF membranes. Membranes were incubated with Li-Cor Biosciences Odyssey Blocking for at least 1 h at room temperature. The membranes were then incubated with primary antibodies specific for Sab, JNK, p44/42 MAPK (Erk1/2), p38, GAPDH, Actin, Calnexin, TOM20, or α-tubulin at 1:1000 dilutions in blocking buffer. Membranes were washed three times for 5 min in PBST. Membranes were incubated with secondary antibodies in blocking buffer at 1:20,000 for fluorescently conjugated secondary antibodies. Membranes were again washed three times for 5 min in PBST. Western blots were developed using the Odyssey CLx imager (Li-Cor Biosciences).
Mitochondria were isolated from HeLa cells. […]
as §2
To determine if LY294002 impacted the concentration of JNK signaling on mitochondria, the expression of Sab was measured in HeLa cells in both acute and sub-chronic administration of LY294002. […] As time increased, there was a noticeable increase (˜8-fold) in Sab expression in the LY294002 compared to DMF-treated and untreated cells (FIG. 17B and quantified in FIG. 18B). […]

[8] = test system: SK-OV-3 ovarian cancer cells; test: Paclitaxel sensitivity of SK-OV-3 cells over-expressing SH3BP5; format: cell-based, human; details: paclitaxel following 48 hours of transfection

NCCc1cc(O)c(O)cc1O [6-OHDA, 6-hydroxydopamine]
SAB expression (Sab expression [1]): elevates SAB expression; also recorded: increased in a dose-dependent manner
Levels of SAB protein or RNA encoding SAB proteins in platelets and other blood cells (SAB [2]; 6-hydroxydopamine treated rats compared to control rats): higher
SAB levels in ventral midbrain (SAB [2]; rats stereotactically injected with 6-OHDA versus saline, six days post-injection): SAB levels increase; also recorded: elevated

Sc1ncnc2nc[nH]c12 [6-mercaptopurine]
Doses that can induce hepatotoxicity [3]: greater than 2 mg/kg

N#CC(C#N)=NNc1cccc(Cl)c1 [CCCP, carbonylcyanide m-chlorophenylhydrazone]
SAB levels (SAB [4]): increased

N.N.[Cl][Pt][Cl] [Cisplatin]
IC50 (HeLa cells [5]; read-out: Cisplatin IC50, Sab shRNA#2 + Sab:shRNA^r (rescue)): 0.0073 µM
IC50 (HeLa cells [5]; read-out: Cisplatin IC50, gene silencing, Sab shRNA#1): 0.0121 µM
IC50 (HeLa cells [5]; read-out: Cisplatin IC50, gene silencing, Sab shRNA#2): 0.0188 µM
IC50 (HeLa cells [5]; read-out: Cisplatin IC50, gene silencing, control shRNA): 0.0039 µM
IC50 (HeLa cells [5]; read-out: Cisplatin IC50, sub-chronic (7 days) 2 μM LY294002): 0.00054 µM
IC50 (HeLa cells [5]; read-out: Cisplatin IC50, untreated): 0.0032 µM

O=c1cc(N2CCOCC2)oc2c(-c3ccccc3)cccc12 [LY294002, 2-Morpholin-4-yl-8-phenylchromen-4-one]
HeLa cell viability (HeLa cells [6]; 2 μM LY294002, seven days): little impact
HeLa cell viability (HeLa cells [6]; 10 μM and 50 μM LY294002, seven days): lethal
24-h IC10 for LY294002 (HeLa cells [6]; HeLa cells, 24 h): ~2 µM
Increase in Sab expression compared to DMF-treated and untreated cells (Sab expression [7]; 2 μM LY294002, 7 days): ~8 fold
SAB expression (in words) (Sab expression [7]; 2 μM LY294002 for seven days): pronounced increase; also recorded: significant increase; also recorded: increased SH3BP5 expression
Sab expression versus 0.1% DMF and untreated controls (Sab expression [7]; 2 μM, 10 μM and 50 μM LY294002 over 24 h): neither condition increased Sab expression
Increase in phospho-JNK levels (JNK; 2 μM LY294002, between days 2 and 4): over 10 fold
JNK levels on mitochondria (JNK; 2 μM LY294002, between days 3 and 4): increased

CC(=O)O[C@H]1C(=O)[C@@]2(C)[C@H]([C@H](OC(=O)c3ccccc3)[C@]3(O)C[C@H](OC(=O)[C@H](O)[C@@H](NC(=O)c4ccccc4)c4ccccc4)C(C)=C1C3(C)C)[C@]1(OC(C)=O)CO[C@@H]1C[C@@H]2O [Paclitaxel]
IC50 (HeLa cells [5]; Homo sapiens, HeLa, 24 h, acute (24 h) 2 μM LY294002, read-out: Paclitaxel IC50): 14.1 µM
IC50 (HeLa cells [5]; Homo sapiens, HeLa, 24 h, acute (24 h) 10 μM LY294002, read-out: Paclitaxel IC50): 6.3 µM
IC50 (HeLa cells [5]; Homo sapiens, HeLa, 24 h, acute (24 h) 50 μM LY294002, read-out: Paclitaxel IC50): 1.9 µM
IC50 (HeLa cells [5]; Homo sapiens, HeLa, 24 h, acute (24 h) 50 μM LY294002, read-out: Paclitaxel IC50 (as worded in text)): 1.9 µM
IC50 (HeLa cells [5]; Homo sapiens, HeLa, 24 h, acute (24 h) 0.1% DMF, read-out: Paclitaxel IC50): 13.6 µM
IC50 (HeLa cells [5]; Homo sapiens, HeLa, 168 h, sub-chronic (7 days) 2 μM LY294002, read-out: Paclitaxel IC50): 5.1 µM
IC50 (HeLa cells [5]; Homo sapiens, HeLa, 168 h, sub-chronic (7 days) 0.1% DMF, read-out: Paclitaxel IC50): 13.9 µM
IC50 (HeLa cells [5]; Homo sapiens, HeLa, Sab shRNA#2 + Sab:shRNA^r (rescue), read-out: Paclitaxel IC50): 28 µM
IC50 (HeLa cells [5]; Homo sapiens, HeLa, ectopic expression of RFP, read-out: Paclitaxel IC50): 13.4 µM
IC50 (HeLa cells [5]; Homo sapiens, HeLa, ectopic expression of Sab, read-out: Paclitaxel IC50): 4.7 µM
IC50 (HeLa cells [5]; Homo sapiens, HeLa, ectopic expression of Sab: KIM1/2-L/A, read-out: Paclitaxel IC50): 13.8 µM
IC50 (HeLa cells [5]; Homo sapiens, HeLa, gene silencing, Sab shRNA#1, read-out: Paclitaxel IC50): 61.8 µM
IC50 (HeLa cells [5]; Homo sapiens, HeLa, gene silencing, Sab shRNA#2, read-out: Paclitaxel IC50): 73.4 µM
IC50 (HeLa cells [5]; Homo sapiens, HeLa, gene silencing, control shRNA, read-out: Paclitaxel IC50): 15.3 µM
IC50 (HeLa cells [5]; Homo sapiens, HeLa, untreated, read-out: Paclitaxel IC50): 14.7 µM
Decrease in the IC50 of paclitaxel on increasing Sab expression (HeLa cells [5]; pLOC:Sab versus untreated, mock-transfected or RFP cells): 5 fold
Sensitivity to paclitaxel of SH3BP5 over-expressing cells compared to mock and D-AKAP1 over-expressing cells [8]: 2.5 times
